“And” between values parts separate entries of the source, which are not always exact repeats. Identical values can stand only once.
Columns and labels:
[1] = format: physicochemical
Protocol: Four dry powder formulations were developed using spray drying with two being acceptable for human use. […] The selected bulking agents were mannitol or trehalose with dispersibility enhancer: L-leucine (˜0.55 wt % solubility limit in 50:50 EtOH: water). Two mannitol formulations and two trehalose formulations with different amounts of L-leucine 10% and 26% were made using a BLD-35 spray dryer. The tested dose was 10 mg of the formulation in a Berry RSO1 high resistance inhaler.

[2] = tested on: IPF; conditions: given orally alone as a monotherapy; cited from earlier work
[3] = cited from earlier work
[4] = tested on: IPF patients; conditions: 21 IPF patients, cited from earlier work; for patients who discontinued the drug: combination trial of vismodegib plus pirfenidone
[5] = tested on: subjects with mild to moderate IPF; conditions: cited from earlier work
[6] = cited from earlier work; remark: listed apart in the source
[7] = Estimate of epithelial lining fluid (ELF) concentration after inhaled delivery, from pirfenidone data; design: species or system human; conditions: for predicted ELF concentration adjusted for 200 μg delivery: inhaled dry powder, 200 μg delivered; for predicted ELF molar concentration if 45 mg delivered: inhaled, extrapolated from pirfenidone data
Protocol: The physical delivery of any drug by the inhalation route may be estimated by data generated in the delivery of inhaled pirfenidone.
Again, since delivery is just a physical process, one can estimate ELF concentrations for 200 μg of taladegib delivered as noted above based on pirfenidone data.

[8] = Estimate of systemic exposure after inhaled dosing versus oral dose; design: species or system human
Protocol: This would be about 6 half-lives. Depending on the half-life in the epithelial lining fluid, one to six inhalations a day would provide adequate inhibition of hedgehog receptors. At the highest dose frequency (6 inhalations/day), the total delivered dose would approximate 3.6 mg.

[9] = cited from earlier work; remark: listed apart in the source
[10] = 150 mg daily oral dose, cited from earlier work
[11] = Published pharmacokinetics of oral vismodegib; format: in vivo, human; conditions: once daily oral therapy
Source text: Only unbound drug can freely cross the alveolar epithelial barrier.

[12] = Accumulation factor calculation at steady state; conditions: half-life 3 days, dosing interval 1 day, first-order kinetics
Source text: This calculation assumes the API is being administered in a clinically effective formulation as disclosed herein, at regular intervals, and that the pharmacokinetics of the candidate compound follow first-order kinetics where the rate of drug elimination is proportional to its concentration. To calculate the multiple of the initial drug concentration at steady state (known as the “accumulation factor”), the formula:
Substitute into the formula: With τ=1 day: AF=1/(1−e^(−0.231*1))≈1/(1−e^(−0.231)).
Evaluate the exponential: e^(−0.231)≈0.794.

CC(C)C[C@H](N)C(=O)O [L-leucine]
solubility limit in 50:50 EtOH: water [1]: ~0.55 wt %

COC(=O)c1ccc2c(c1)NC(=O)/C2=C(\Nc1ccc(N(C)C(=O)CN2CCN(C)CC2)cc1)c1ccccc1 [nintedanib]
slowing of the progression of the disease [2]: about 50%

Cc1ccc(=O)n(-c2ccccc2)c1 [pirfenidone]
slowing of the progression of the disease [2]: about 50% | amount delivered to the lung ([3]; 100 mg dose in the nebulizer, 24 hour urine analysis): 45 mg | epithelial lining fluid concentration ([3]; aerosolized, normal volunteers, average): 135 µg/mL | patients who discontinued the drug [4]: 33.3%

CN(C(=O)c1ccc(F)cc1C(F)(F)F)C1CCN(c2nnc(-c3ccnn3C)c3ccccc23)CC1 [taladegib, Taladegib]
alopecia ([5]; oral taladegib group): 52% | dysgeusia ([5]; oral taladegib group): 57% | muscle spasms ([5]; oral taladegib group): 43% | lung fibrosis by high resolution CT scan ([5]; oral taladegib versus slight increase in placebo group): decreased lung fibrosis | improvement in FVC ([5]; oral taladegib, at 12 weeks, on average, placebo 1.3% loss (p=0.035)): 1.9% | plasma protein bound [6]: 95% | ELF concentration versus that achieved by 200 mg oral dose of taladegib (unbound) ([7]; 200 μg inhaled delivered dose): ≈ 29 fold and > 29 fold | predicted ELF concentration adjusted for 200 μg delivery [7]: 1.16 µmol/L | predicted ELF molar concentration if 45 mg delivered [7]: 264 µmol/L | systemic exposure/absorption relative to the oral dose ([8]; six inhalations a day, total 3.6 mg): less than 10% | mean concentration at steady state ([9]; 200 mg daily oral dose): about 0.8 μmol/L | absorption ([9]; 200 mg oral dose): approximately 30%

CS(=O)(=O)c1ccc(C(=O)Nc2ccc(Cl)c(-c3ccccn3)c2)c(Cl)c1 [vismodegib, Vismodegib]
amount dissolved in 50:50 EtOH: water (wt/wt) solution ([1]; 50:50 EtOH: water (wt/wt)): 4% | mean unbound concentration ([10]; steady state): 109 ± 58 nM | peak plasma concentration at steady state [10]: 22.6 ± 10.8 µmol/L | patients who discontinued the drug [4]: 42.9% | lung function and shortness of breath ([4]; vismodegib 150 mg daily plus pirfenidone 801 mg three times daily, 24 weeks, on average): improved | patients reporting at least one treatment-emergent adverse event ([4]; vismodegib 150 mg daily plus pirfenidone, 24 weeks): all patients | plasma protein bound [6]: 98% | plasma protein binding, in words ([6]; to albumin and alpha-1 acid glycoprotein): highly protein-bound | predicted ELF concentration adjusted for 200 μg delivery [7]: 1.71 µmol/L | predicted ELF molar concentration if 45 mg delivered [7]: 388 µmol/L | total systemic exposure ([8]; six administrations a day of a 30 mg capsule (delivered dose 600 μg each)): 3.6 mg | plasma concentration nadir, of the peak [11]: about 80% | accumulation factor, steady state concentration versus after the first dose [12]: about 4.85 times

Reference: patent US20250295583A1, “INHALED HEDGEHOG INHIBITORS” (WBX PHARMA, INC., priority 2024, published 2025)
